The results in this text go back to patent US5466829A, “Ginkgolide derivatives and a process for preparing them” (priority 1991, dated 1995).

Where two headings read alike, the source gives them in different places.

This test deals with Platelet Activating Factor induced platelet aggregation. The test can be described thus: Platelet aggregation inhibiting effect of rabbit by PAF (platelet rich plasma, Chrono-log aggregometer). The format is cell-based, New Zealand White Rabbit. Conditions: for IC50: read-out: IC50, 50% of the inhibition concentration, platelet aggregation inhibiting effect; for platelet aggregation inhibiting activity compared with Ginkgolide B: rabbit PRP, PAF-induced, comparison in words. How it is done: The blood gathering in the ear artery of the New Zealand White Rabbit of weight 3~3.5 kg was mixed with 3.8% sodium citrate solution at the ratio of 1:9. After centrifuging for 10 minutes at 1000 rpm, the upper Platelet Rich Plasma(PRP) layer was taken. Again after centrifuging for 10 minutes at 3000 rpm, the upper Platelet Poor Plasma(PPP) was taken.
After measuring the platelet figures of the PRP using the Coulter counter, the platelet figures was adjusted to 3×10^5 /μl by diluting with PPP.
The ginkgolide derivatives which were obtained from the above example 1 and 5~9 was investigated platelet aggregation inhibiting effect by that 270 μl of PRP and 30 μl of the derivative solution was treated using the Chrono-log aggregometer which the light tansmittance of PPP was fixed to 100% and the light tansmittance of PRP was fixed to 0% and then 30 μl of Platelet Activating Factor of 5×10^-9 M and 5×10^-8 M concentration was added.
Then, IC50, 50% of the inhibition concentration, of derivatives was searched.

[1] abbreviates: Oryctolagus cuniculus, Platelet.
[2] abbreviates: Oryctolagus cuniculus, Platelet, rabbit PRP adjusted to 3×10^5 /μl platelets, aggregation induced by PAF of 5×10^-9 M and 5×10^-8 M.
Setting [3] is: rabbit PRP adjusted to 3×10^5 /μl platelets, aggregation induced by PAF of 5×10^-9 M and 5×10^-8 M.

In the case of `C[C@@H]1C(=O)OC2C1C13OC4OC(=O)C(O)C45C(C(C)(C)C)CC(OC1=O)C35C2O` (some centres unmarked) [formula (I-a), 3-dehydroxy-Ginkgolide B], the “platelet aggregation inhibiting activity compared with Ginkgolide B” value is given as “low than the Ginkgolide B in its activity”. Under setting [1], the IC50 amounted to 2640 nM.

Take `CC1C(=O)OC2C(O)C34C5CC(C(C)(C)C)C36C(OC(=O)C6O)OC4(C(=O)O5)C12O` (centres unmarked) [Ginkgolide B, reference compound]: the IC50 under setting [2] was 427 nM. Consider `C[C@@H]1C(=O)OC2C3OCOC4C(=O)OC5OC6(C(=O)OC7CC(C(C)(C)C)C54C736)C21O` (some centres unmarked) [formula (II), 1,10-methylenedioxy-Ginkgolide B], for which the “platelet aggregation inhibiting activity compared with Ginkgolide B” value is reported as “low than the Ginkgolide B in its activity”. The IC50 under setting [2] was determined as 1050 nM. Take “3-dihydroxy-1,10-methylenedioxy-14-epi-Ginkgolide B [formula (III)]”: the “platelet aggregation inhibiting activity compared with Ginkgolide B” value is given as “low than the Ginkgolide B in its activity”. For the same molecule, under setting [3], the IC50 turned out to be 6980 nM.

For `C[C@@H]1C(=O)O[C@H]2C[C@@]34[C@H]5C[C@@H](C(C)(C)C)[C@]36[C@@H](OC(=O)[C@@H]6O)O[C@@]4(C(=O)O5)[C@]21O` [Ginkgolide A, reference compound], under setting [1], the IC50 worked out at 1750 nM. “3-dehydroxy- 1,10-methylenedioxy-Ginkgolide B [formula (IV)]”: the “platelet aggregation inhibiting activity compared with Ginkgolide B” value is “low than the Ginkgolide B in its activity”. Besides, the IC50 under setting [3] was found to be 4950 nM. On to `C[C@H]1C(=O)OC2C1C13OC4OC(=O)C(O)C45C(C(C)(C)C)CC(OC1=O)C35C2O` (stereo partly drawn) [formula (I-b), 3-dehydroxy-14-epi-Ginkgolide B], for which the IC50 under setting [1] came out at 13000 nM.
